Measurements taken from patent publication US20010016731A1, “Methods and apparatus for accelerated orthokeratology” (priority 1998, published 2001).

How the values were obtained:
[1] = tested on: rabbit's eyes (cornea); assay: Experiment 3: live rabbit eye, EYESYS topography and slit-lamp; format: in vivo; conditions: glutaric anhydride 20 mg/ml in pH 8.5 phosphate buffer, contact lens, 0.3M sodium persulfate, UV two 30 second bursts
Procedure: Third set of experiments using a live rabbit. Both the EYESYS topographical system and EFOS Ultracure 100SS were available. The rabbit's eyes were examined by slit-lamp and EYESYS. Topographical profiles were printed. The control eye was left untreated. The experimental eye was exposed to 0.02M phosphate buffer, pH 8.5, and treated with glutaric anhydride at 20 mg/ml in pH 8.5 phosphate buffer followed by application of a contact lens. The eye was then washed with 0.02M phosphate buffer, pH 8.5 to remove residual glutaric acid, soaked with buffer containing 0.3M sodium persulfate and exposed to UV light for two 30 second bursts with the contact lens in place. Both the control and treated eyes were examined by slit-lamp and EYESYS. Topographical profiles were printed.

[2] = tested on: enucleated pig eyes (cornea); assay: Experiment 2: enucleated pig eyes, EYESYS topographical mapping and slit lamp; conditions: 0.3M sodium persulfate, UV about 30 seconds
Procedure: Second set of experiments also using enucleated pig eyes. an EYESYS topographical system was available to perform topographical mapping of the eyes before and after treatment. In addition, the EFOS Ultracure 100SS was available for UV light treatment. In a control part of the experiment, an eye was examined using a slit lamp and using the EYESYS system. Neither glutaric anhydride nor sodium persulfate were administered prior to application of UV light exposure. However, buffers were administered to simulate full treatment. […] In a second part of the experiment, a second pig eye was examined by slit lamp, and EYESYS. Topographical profiles were printed. The eye was them soaked in phosphate buffer at pH 8.5 for 2 minutes. Glutaric anhydride at 10 mg/ml was prepared in an alcohol solution and immediately administered to the eye. A contact lens was applied to the eye and held in place for 1 minute. The eye was then soaked in a sodium persulfate solution (0.3M sodium persulfate in pH 8.5 buffer) with the lens still in place. After several one (1) minute soaks in the sodium persulfate solution, the eye was exposed to UV light for about 30 seconds. The lens was removed and the eye washed with phosphate buffer, pH 7.2. The eye was then examined by slit lamp and EYESYS. […] In a third part of the experiment, a third eye was treated the same as above, expect that the glutaric anhydride was delivered in a phosphate buffer, pH 8.5, in an attempt to prevent the clouding observed using alcohol.

[3] = tested on: enucleated pig eyes (cornea)
[4] = glutaric anhydride 10 mg/ml in alcohol solution, contact lens 1 minute
[5] = contact lens without destabilization, sodium persulfate solution then UV about 30 seconds

slit-lamp examination of treated eye [1] | time for corneal haze to clear [1] | slit lamp examination (corneal clouding) [2, 4] | slit lamp examination (corneal clouding) ([2]; glutaric anhydride delivered in phosphate buffer pH 8.5, contact lens, compared with alcohol solution) | SMILES | surface topography of treated eye (EYESYS) [1] | EYESYS examination (eye topography) [2, 4] | EYESYS examination (eye topography) ([2]; glutaric anhydride delivered in phosphate buffer pH 8.5, contact lens) | indentations and ridges created by the lens ([3]; 10 mg/ml glutaric anhydride 1 minute, contact lens, 0.3M sodium persulfate, UV 20 seconds) | K-readings after UV treatment ([3]; 10 mg/ml glutaric anhydride 1 minute, contact lens, 0.3M sodium persulfate, UV 20 seconds, pretreatment 36.75/37.5) | persistence of ridge created by the contact lens [3, 5] | slit-lamp appearance of eyes after treatment [3, 5]
some corneal haze | about 1 hour | some cloudiness | much less corneal clouding | O=C1CCCC(=O)O1 [glutaric anhydride] | obvious change in surface topography | eye topography had been changed | topographical changes appearing to match the curvature of the applied contact lens | observed immediately post-treatment and 1 hour after treatment | too steep to read and rather distorted | – | –
– | – | – | – | O=S(=O)([O-])OOS(=O)(=O)[O-].[Na+].[Na+] [sodium persulfate] | – | – | – | – | – | visible after 1 hour | clear
